Reference: the supplement of paper PMC10307832

How the values were obtained:
Assay in all cases: relative viability (nuclei count vs DMSO), 5 days (fraction); higher = more cells survive
HCC-44 = tested on: HCC-44
Outline: (§1)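 The day after seeding in 1536-well plates, lung cancer cell lines were treated by pin tool with a single drug, or with a fixed anchor-drug dose together with five library-drug doses (not always all listed) in √10 steps. After 5 days, a combined fix-and-stain solution (final 0.05% Triton X-100, 1% formaldehyde, 1 ug/ml Hoechst) was added. Nuclei counted on 4× images gave relative viability as treated counts over vehicle counts, reported as the median of duplicate plates.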

NCI-H23 = tested on: NCI-H23
Outline: as §1

LCLC-103H = tested on: LCLC-103H
Outline: as §1

HCC-827 = tested on: HCC-827
Outline: as §1

A-427 = tested on: A-427
Outline: as §1

NCI-H441 = tested on: NCI-H441
Outline: as §1

EKVX = tested on: EKVX
Outline: as §1

NCI-H596 = tested on: NCI-H596
Outline: as §1

COR-L 105 = tested on: COR-L 105
Outline: as §1

NCI-H1437 = tested on: NCI-H1437
Outline: as §1

HARA = tested on: HARA
Outline: as §1

HCC-15 = tested on: HCC-15
Outline: as §1

NCI-H1975 = tested on: NCI-H1975
Outline: as §1

NCI-H650 = tested on: NCI-H650
Outline: as §1

201T = tested on: 201T
Outline: as §1

NCI-H838 = tested on: NCI-H838
Outline: as §1

NCI-H1792 = tested on: NCI-H1792
Outline: as §1

NCI-H1666 = tested on: NCI-H1666
Outline: as §1

COR-L23 = tested on: COR-L23
Outline: as §1

NCI-H520 = tested on: NCI-H520
Outline: as §1

CC(C)Oc1cc(Nc2nc(N[C@@H](C)c3ccc(F)cn3)ncc2Cl)n[nH]1 [AZ23] + CC(C)C[C@H](NC(=O)[C@H](Cc1ccccc1)NC(=O)c1cnccn1)B(O)O [Bortezomib] (partner 0.002 µM)
relative viability (HCC-44; first compound 0.01 µM): 0.88
relative viability (HCC-44; first compound 0.03162 µM): 1.07
relative viability (HCC-44; first compound 0.3162 µM): 0.912
relative viability (NCI-H23; first compound 0.03162 µM): 1.12
relative viability (NCI-H23; first compound 0.3162 µM): 1.04
relative viability (LCLC-103H; first compound 0.01 µM): 1.01
relative viability (LCLC-103H; first compound 0.03162 µM): 1.26
relative viability (LCLC-103H; first compound 0.3162 µM): 1.14
relative viability (HCC-827; first compound 0.01 µM): 1.16
relative viability (HCC-827; first compound 0.03162 µM): 1.06
relative viability (HCC-827; first compound 0.3162 µM): 1.08
relative viability (A-427; first compound 0.01 µM): 1.07
relative viability (A-427; first compound 0.03162 µM): 1.11
relative viability (A-427; first compound 0.3162 µM): 0.969
relative viability (NCI-H441; first compound 0.01 µM): 0.833
relative viability (NCI-H441; first compound 0.03162 µM): 1.05
relative viability (NCI-H441; first compound 0.3162 µM): 0.678
relative viability (EKVX; first compound 0.01 µM): 1.52
relative viability (EKVX; first compound 0.03162 µM): 1.26
relative viability (EKVX; first compound 0.3162 µM): 1.01
relative viability (NCI-H596; first compound 0.01 µM): 1.17
relative viability (NCI-H596; first compound 0.03162 µM): 1.06
relative viability (NCI-H596; first compound 0.3162 µM): 1.1
relative viability (COR-L 105; first compound 0.01 µM): 0.733
relative viability (COR-L 105; first compound 0.03162 µM): 1.04
relative viability (COR-L 105; first compound 0.3162 µM): 0.757
relative viability (NCI-H1437; first compound 0.01 µM): 0.541
relative viability (NCI-H1437; first compound 0.03162 µM): 0.484
relative viability (NCI-H1437; first compound 0.3162 µM): 0.569
relative viability (HARA; first compound 0.01 µM): 1.04
relative viability (HARA; first compound 0.03162 µM): 1.1
relative viability (HARA; first compound 0.3162 µM): 1.27
relative viability (HCC-15; first compound 0.01 µM): 1.38
relative viability (HCC-15; first compound 0.03162 µM): 1.09
relative viability (HCC-15; first compound 0.3162 µM): 1.16
relative viability (NCI-H1975; first compound 0.01 µM): 0.393
relative viability (NCI-H1975; first compound 0.03162 µM): 0.372
relative viability (NCI-H1975; first compound 0.3162 µM): 0.375
relative viability (NCI-H650; first compound 0.01 µM): 0.71
relative viability (NCI-H650; first compound 0.03162 µM): 0.946
relative viability (NCI-H650; first compound 0.3162 µM): 0.84
relative viability (201T; first compound 0.01 µM): 1.18
relative viability (201T; first compound 0.03162 µM): 1.07
relative viability (201T; first compound 0.3162 µM): 1.13
relative viability (NCI-H838; first compound 0.01 µM): 0.772
relative viability (NCI-H838; first compound 0.03162 µM): 0.702
relative viability (NCI-H838; first compound 0.3162 µM): 0.757
relative viability (NCI-H1792; first compound 0.01 µM): 1.27
relative viability (NCI-H1792; first compound 0.03162 µM): 1.12
relative viability (NCI-H1792; first compound 0.3162 µM): 1.06
relative viability (NCI-H1666; first compound 0.01 µM): 0.725
relative viability (NCI-H1666; first compound 0.03162 µM): 0.878
relative viability (NCI-H1666; first compound 0.3162 µM): 0.889
relative viability (COR-L23; first compound 0.01 µM): 0.921
relative viability (COR-L23; first compound 0.03162 µM): 1.27
relative viability (COR-L23; first compound 0.3162 µM): 1.04
relative viability (NCI-H520; first compound 0.01 µM): 0.434
relative viability (NCI-H520; first compound 0.03162 µM): 0.591
relative viability (NCI-H520; first compound 0.3162 µM): 0.495
